Measured values as given in the supplement of paper PMC10307832.

What was measured:
Test in all cases: relative viability (nuclei count vs DMSO), 5 days (fraction); higher = more cells survive
[1] = compound: O=C(NC1CCNCC1)c1n[nH]cc1NC(=O)c1c(Cl)cccc1Cl [AT-7519] + Cc1cc(Nc2cc(N3CCN(C)CC3)nc(Sc3ccc(NC(=O)C4CC4)cc3)n2)n[nH]1 [Tozasertib] (partner 0.1 µM)
In short: (§1)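 Lung cancer cell lines in 1536-well plates were dosed by pin tool the day after seeding, either with one drug alone or with a fixed anchor-drug dose plus five library-drug doses (not always all listed) in √10 steps. After 5 days, cells were fixed and their nuclei stained in one step (final 0.05% Triton X-100, 1% formaldehyde, 1 ug/ml Hoechst), then counted on 4× images. Relative viability is the nuclei count in treated wells divided by that in vehicle wells. Values are medians of duplicate plates.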

[2] = compound: C1=CC2=C(C=C(C(=C2N=C1)O)N=NC3=CC4=C(C=C3)C=C(C=C4)S(=O)(=O)O)S(=O)(=O)O + O=C(CCCCCCC(=O)Nc1ccccc1)NO [Vorinostat] (partner 1 µM)
In short: as §1

[3] = compound: O=C(NC1CCNCC1)c1n[nH]cc1NC(=O)c1c(Cl)cccc1Cl [AT-7519] + O=C(c1cc(Cc2n[nH]c(=O)c3ccccc23)ccc1F)N1CCN(C(=O)C2CC2)CC1 [Olaparib] (partner 8 µM)
In short: as §1

[4] = compound: O=C(NC1CCNCC1)c1n[nH]cc1NC(=O)c1c(Cl)cccc1Cl [AT-7519] + CCNC(=O)c1noc(-c2cc(C(C)C)c(O)cc2O)c1-c1ccc(CN2CCOCC2)cc1 [Luminespib] (partner 0.01 µM)
In short: as §1

| Cell Line | relative viability ([1]; first compound 0.01 µM) | relative viability ([1]; first compound 0.03162 µM) | relative viability ([1]; first compound 1 µM) | relative viability ([2]; first compound 0.08 µM) | relative viability ([2]; first compound 0.253 µM) | relative viability ([2]; first compound 0.8 µM) | relative viability ([2]; first compound 2.53 µM) | relative viability ([2]; first compound 8 µM) | relative viability ([3]; first compound 0.01 µM) | relative viability ([3]; first compound 0.03162 µM) | relative viability ([3]; first compound 0.3162 µM) | relative viability ([3]; first compound 1 µM) | relative viability ([4]; first compound 0.01 µM) | relative viability ([4]; first compound 0.03162 µM) | relative viability ([4]; first compound 1 µM) | relative viability ([1]; first compound 0.3162 µM) | relative viability ([4]; first compound 0.3162 µM) |
| --- | --- | --- | --- | --- | --- | --- | --- | --- | --- | --- | --- | --- | --- | --- | --- | --- | --- |
| LK-2 | 0.18 | 0.165 | 0.206 | 0.308 | 0.333 | 0.292 | 0.263 | 0.178 | 0.815 | 0.74 | 0.706 | 0.593 | 0.188 | 0.159 | 0.189 | – | – |
| 201T | 1.01 | 1.01 | 0.977 | 0.997 | 1.04 | 0.961 | 1.08 | 0.942 | 0.895 | 0.846 | 0.917 | 0.666 | 1.12 | 1.07 | 1.05 | 0.946 | 1.04 |
| HCC-44 | 1.14 | 0.809 | 0.231 | 1.22 | 1.08 | 1.08 | 1.11 | 0.995 | 1.08 | 1.01 | 0.937 | 1.02 | 1.13 | 1.03 | 0.235 | 0.303 | 0.636 |
| NCI-H596 | 0.78 | 0.811 | 0.849 | 0.544 | 0.645 | 0.545 | 0.613 | 0.649 | 0.64 | 0.733 | 0.691 | 0.644 | 0.988 | 1 | 0.827 | 1 | 0.846 |
| H3255 | 0.998 | 0.506 | 0.582 | 0.84 | 0.828 | 0.803 | 0.846 | 0.754 | 0.581 | 0.514 | 0.527 | 0.451 | 0.902 | 0.936 | 0.974 | 0.622 | 0.938 |
| NCI-H647 | 0.44 | 0.218 | 0.227 | 0.646 | 0.607 | 0.563 | 0.639 | 0.437 | 0.355 | 0.55 | 0.482 | 0.189 | 0.209 | 0.244 | 0.0855 | 0.22 | 0.148 |
| NCI-H2023 | 0.362 | 0.379 | 0.135 | 0.844 | 0.581 | 0.621 | 0.641 | 0.633 | 0.46 | 0.485 | 0.386 | 0.128 | 0.622 | 0.748 | 0.16 | 0.295 | 0.521 |
| NCI-H23 | 0.332 | 0.361 | 0.395 | 0.661 | 0.627 | 0.599 | 0.561 | 0.633 | 0.368 | 0.265 | 0.327 | 0.173 | 0.224 | 0.236 | 0.146 | 0.337 | 0.183 |
| NCI-H1944 | 0.25 | 0.24 | 0.213 | 0.52 | 0.538 | 0.525 | 0.583 | 0.477 | 0.383 | 0.424 | 0.412 | 0.337 | 0.846 | 0.775 | 0.554 | 0.249 | 0.677 |
| NCI-H1793 | 0.32 | 0.323 | 0.312 | 0.797 | 0.814 | 0.795 | 0.78 | 0.838 | 0.849 | 0.774 | 0.786 | 0.546 | 0.387 | 0.161 | 0.119 | 0.33 | 0.385 |
| NCI-H520 | 0.438 | 0.453 | 0.385 | 0.66 | 0.662 | 0.761 | 0.681 | 0.753 | 0.341 | 0.315 | 0.287 | 0.201 | 0.233 | 0.239 | 0.209 | 0.399 | 0.263 |
| NCI-H460 | 0.699 | 0.473 | 0.193 | 0.955 | 0.66 | 0.684 | 0.708 | 0.71 | 0.367 | 0.456 | 0.315 | 0.18 | 0.0297 | 0.0263 | 0.0206 | 0.462 | 0.0291 |
| EKVX | 0.454 | 0.389 | 0.531 | 0.757 | 0.694 | 0.643 | 0.76 | 0.656 | 0.816 | 0.758 | 0.809 | 0.995 | 0.988 | 0.845 | 0.774 | 0.403 | 0.846 |
| NCI-H358 | 0.111 | 0.116 | 0.0852 | 0.676 | 0.711 | 0.628 | 0.748 | 0.701 | 0.608 | 0.48 | 0.36 | 0.11 | 0.326 | 0.267 | 0.224 | 0.0818 | 0.24 |
| EPLC-272H | 0.376 | 0.26 | 0.243 | 0.453 | 0.358 | 0.306 | 0.876 | 0.491 | 0.604 | 0.591 | 0.606 | 0.0569 | 0.226 | 0.216 | 0.0726 | 0.39 | 0.37 |
| NCI-H1395 | 0.788 | 0.782 | 0.668 | 0.674 | 0.596 | 0.554 | 0.73 | 0.551 | 0.374 | 0.471 | 0.413 | 0.419 | 0.606 | 0.648 | 0.508 | 0.716 | 0.665 |
| NCI-H2126 | 0.946 | 0.865 | 0.32 | 0.899 | 0.75 | 0.737 | 0.809 | 0.851 | 0.902 | 0.935 | 0.932 | 0.874 | 1.02 | 0.916 | 0.297 | 0.504 | 0.805 |
| LXF-289 | 0.159 | 0.184 | 0.178 | 0.75 | 0.719 | 0.817 | 0.704 | 0.766 | 1.09 | 1.15 | 1.02 | 1.06 | 0.557 | 0.724 | 0.5 | 0.195 | 0.697 |
